Laboratory results: US20110039721A1, “METHOD FOR PREDICTION ABOUT CARCINOGENICITY OF SUBSTANCE IN RODENT” (Chemicals Evaluation and Research Institute, priority 2007, published 2011)

System: mRNA expressed from the genes (A) to (D) in rat liver
Assay: Behavior of genes (mRNA expression level, oligo-DNA microarray) in rat liver after 28-day oral administration
Assay type: in vivo
Conditions: mRNA vs vehicle control group
Protocol: A test solution was prepared by dissolving each of the carcinogens and the non-carcinogens shown in Tables 2 to 6 in the corresponding solvent shown in Tables 2 to 6. Each of the thus prepared test solutions and the solvents used for the preparation was administered by oral gavage to rats in each group. As the rats, male rats (F344 SPF rats) at 5 weeks of age obtained from Charles River Laboratories Japan, Inc. were used. The animals were divided into groups, each containing four individuals. The volume of the solvent administered to the vehicle control group was set to the same volume as that of the test solution administered to the carcinogen administration group or the non-carcinogen administration group. The administration of the test solution or the solvent was performed once daily for 28 days. Apiece was excised from the liver of each of the rats after a lapse of 28 days from the initiation of the administration, and the total RNA was extracted and purified.
The expression level of mRNA was compared between each of the chemical substance administration groups and the corresponding vehicle control group, and genes that satisfy the requirements described in (A) to (D) were selected, respectively.
The case where the expression level of mRNA in the carcinogen administration group or the non-carcinogen administration group is 1.5 times or more or 1/1.5 or less of the expression level of the corresponding mRNA expressed in the control group was determined to be significant. In this connection, the determination as to whether or not the change is significant was performed by taking into consideration the direction of increase or decrease in the expression level. In the case where the direction of increase or decrease is different as compared with the case where another carcinogen was administered, the change was determined to be not significant.

[1] = gene group (A), Unigene No. Rn.167075
[2] = gene group (C), Unigene No. Rn.120914

## O=[N+]([O-])c1cc[n+]([O-])c2ccccc12 [TS049, 4-Nitroquinoline-1-oxide]
Gene group (A), Unigene No. Rn.144554
  Behavior of gene caused by administration of chemical substance, Gene No. 4846: −
[1]
  Behavior of gene caused by administration of chemical substance, Gene No. 2026: −
  Behavior of gene caused by administration of chemical substance, Gene No. 4218: −
Gene group (A), Unigene No. Rn.5834
  Behavior of gene caused by administration of chemical substance, Gene No. 6182: −
Gene group (A), Unigene No. Rn.9836
  Behavior of gene caused by administration of chemical substance, Gene No. 5600: −
Gene group (B), Unigene No. Rn.1430
  Behavior of gene caused by administration of chemical substance, Gene No. 1494: −
Gene group (B), Unigene No. Rn.19329
  Behavior of gene caused by administration of chemical substance, Gene No. 2045: −
Gene group (B), Unigene No. Rn.21240
  Behavior of gene caused by administration of chemical substance, Gene No. 2203: −
Gene group (C), Unigene No. Rn.106184
  Behavior of gene caused by administration of chemical substance, Gene No. 533: −
Gene group (C), Unigene No. Rn.108075
  Behavior of gene caused by administration of chemical substance, Gene No. 725: −
Gene group (C), Unigene No. Rn.11766
  Behavior of gene caused by administration of chemical substance, Gene No. 1163: −
Gene group (C), Unigene No. Rn.118529
  Behavior of gene caused by administration of chemical substance, Gene No. 4973: −
Gene group (C), Unigene No. Rn.119024
  Behavior of gene caused by administration of chemical substance, Gene No. 4095: −
[2]
  Behavior of gene caused by administration of chemical substance, Gene No. 1334: −
  Behavior of gene caused by administration of chemical substance, Gene No. 6620: −
Gene group (C), Unigene No. Rn.123063
  Behavior of gene caused by administration of chemical substance, Gene No. 6303: −
Gene group (C), Unigene No. Rn.143213
  Behavior of gene caused by administration of chemical substance, Gene No. 5878: −
Gene group (C), Unigene No. Rn.144946
  Behavior of gene caused by administration of chemical substance, Gene No. 1131: −
Gene group (C), Unigene No. Rn.14744
  Behavior of gene caused by administration of chemical substance, Gene No. 1562: −
Gene group (C), Unigene No. Rn.1647
  Behavior of gene caused by administration of chemical substance, Gene No. 1741: −
Gene group (C), Unigene No. Rn.164817
  Behavior of gene caused by administration of chemical substance, Gene No. 893: −
Gene group (C), Unigene No. Rn.167685
  Behavior of gene caused by administration of chemical substance, Gene No. 6026: −
Gene group (C), Unigene No. Rn.185941
  Behavior of gene caused by administration of chemical substance, Gene No. 154: −
Gene group (C), Unigene No. Rn.18728
  Behavior of gene caused by administration of chemical substance, Gene No. 1993: −
Gene group (C), Unigene No. Rn.201760
  Behavior of gene caused by administration of chemical substance, Gene No. 813: −
Gene group (C), Unigene No. Rn.23969
  Behavior of gene caused by administration of chemical substance, Gene No. 2494: −
Gene group (C), Unigene No. Rn.24561
  Behavior of gene caused by administration of chemical substance, Gene No. 2546: −
Gene group (C), Unigene No. Rn.43232
  Behavior of gene caused by administration of chemical substance, Gene No. 3776: −
Gene group (C), Unigene No. Rn.4620
  Behavior of gene caused by administration of chemical substance, Gene No. 3929: −
Gene group (C), Unigene No. Rn.9757
  Behavior of gene caused by administration of chemical substance, Gene No. 1119: −
Gene group (C), Unigene No. Rn.9779
  Behavior of gene caused by administration of chemical substance, Gene No. 6742: −
Gene group (C), Unigene No. Rn.9862
  Behavior of gene caused by administration of chemical substance, Gene No. 5634: −
Gene group (D), Unigene No. Rn.9939
  Behavior of gene caused by administration of chemical substance, Gene No. 5726: +
